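Cultured in 96-well plates, cells were exposed to test compound for 48 hours across five concentrations. GI50 marks 50% less growth. At the TGI there is no net growth.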

Some test systems named below: 786-0 renal; CCRF-CEM leukemia; EKVX NSCLC; LOX IMVI melanoma; OVCAR-4 ovarian; OVCAR-8 ovarian; SF-295 CNS; SK-MEL-28 melanoma; UO-31 renal; KM12 colon.
What all share (assay): NCI-60 cell line screen, 48 h

`CC(=O)Nc1ccc(/C=C(\NC(=O)c2ccccc2)c2nc3ccc4c(c3[nH]2)C(=O)c2ccccc2C4=O)cc1`: the TGI in the assay on 786-0 renal, with CCRF-CEM leukemia, with EKVX NSCLC, in the assay on LOX IMVI melanoma, in the assay on OVCAR-4 ovarian and in the assay with OVCAR-8 ovarian was more than 100 µM each time. In addition, the TGI is more than 100 µM in the assay with SF-295 CNS, more than 100 µM in the assay with SK-MEL-28 melanoma and 9.17 µM in the assay on UO-31 renal.

As to `CSC(=S)c1ccc(C(=S)SC)cc1`, the TGI in the assay on 786-0 renal, with EKVX NSCLC, in the assay with KM12 colon, with LOX IMVI melanoma, in the assay with OVCAR-4 ovarian and with OVCAR-8 ovarian was more than 100 µM in each case. Besides, the TGI in the assay with SF-295 CNS and with UO-31 renal was more than 100 µM throughout.

As for `O=C(Nc1ccc(Cl)c(C(F)(F)F)c1)C(=O)C(C(=O)/C=C/c1ccccc1)C1OC(=O)c2ccccc21` (stereo unspecified), the TGI in the assay with 786-0 renal, in the assay with CCRF-CEM leukemia, with EKVX NSCLC, with KM12 colon, in the assay with LOX IMVI melanoma and in the assay on OVCAR-4 ovarian was more than 100 µM in each case. The TGI in the assay on OVCAR-8 ovarian, in the assay with SF-295 CNS and in the assay on UO-31 renal was more than 100 µM each time.

In the case of `CN(C)/[N+]([O-])=N/Oc1cc(Nc2cccc(C(=O)O)c2)c([N+](=O)[O-])cc1[N+](=O)[O-]`, the GI50 is more than 100 µM with 786-0 renal; more than 100 µM in the assay on EKVX NSCLC; 86.7 µM with KM12 colon; 38.5 µM with LOX IMVI melanoma; more than 100 µM in the assay with OVCAR-8 ovarian; more than 100 µM in the assay with SF-295 CNS. Further, the GI50 with SK-MEL-28 melanoma and in the assay on UO-31 renal was more than 100 µM each time. In addition, the TGI with 786-0 renal, in the assay with EKVX NSCLC, in the assay on KM12 colon, in the assay on LOX IMVI melanoma, in the assay on OVCAR-8 ovarian and in the assay on SF-295 CNS was more than 100 µM in each case. Further, the TGI in the assay with SK-MEL-28 melanoma and with UO-31 renal was more than 100 µM each time.

For the molecule `COc1cc(Nc2cnc3cc(C(F)(F)F)ccc3n2)cc(OC)c1OC`, the TGI in the assay with 786-0 renal, in the assay on CCRF-CEM leukemia, in the assay with EKVX NSCLC, in the assay on LOX IMVI melanoma, in the assay with OVCAR-8 ovarian and in the assay with SF-295 CNS was more than 100 µM in each case. The TGI with SK-MEL-28 melanoma and with UO-31 renal was more than 100 µM throughout.

On to `CNc1ccccc1C(=O)N/N=C/C=C/c1ccccc1`, for which the GI50 is 15.6 µM with 786-0 renal; 2.39 µM with CCRF-CEM leukemia; 0.547 µM with KM12 colon; 1.34 µM in the assay with LOX IMVI melanoma; 5.61 µM in the assay with OVCAR-4 ovarian; 3.41 µM in the assay with OVCAR-8 ovarian. Besides, the GI50 with SF-295 CNS is 1.57 µM; in the assay on SK-MEL-28 melanoma, 6.88 µM; in the assay with UO-31 renal it was 8.08 µM. Moreover, the TGI in the assay with 786-0 renal is more than 100 µM; in the assay on CCRF-CEM leukemia, 97 µM; with KM12 colon, 50.5 µM; with LOX IMVI melanoma, more than 100 µM; in the assay on OVCAR-4 ovarian, more than 48.5 µM; in the assay with OVCAR-8 ovarian, more than 100 µM. Moreover, the TGI in the assay with SF-295 CNS is more than 54.3 µM; with SK-MEL-28 melanoma it was more than 100 µM; in the assay on UO-31 renal, 97.9 µM.

Regarding `Oc1ccc(C(c2ccccc2)(c2ccccc2)c2ccccc2)cc1`, the GI50 in the assay with 786-0 renal is 14.4 µM; with CCRF-CEM leukemia, 21.1 µM; with EKVX NSCLC, 15.4 µM; in the assay on KM12 colon it was 19.3 µM; with LOX IMVI melanoma, 24.4 µM; in the assay on OVCAR-4 ovarian, 12.3 µM. Also, the results for the GI50 with OVCAR-8 ovarian, in the assay on SF-295 CNS and in the assay on UO-31 renal were 18.2 µM, 27.2 µM and 11.8 µM, respectively. In addition, the TGI in the assay on 786-0 renal is 29.7 µM; with CCRF-CEM leukemia it was 39.5 µM; with EKVX NSCLC, 29.3 µM; in the assay on KM12 colon, 48.7 µM; with LOX IMVI melanoma it was more than 100 µM; in the assay on OVCAR-4 ovarian, 25.2 µM. The TGI in the assay with OVCAR-8 ovarian was 35.9 µM; in the assay with SF-295 CNS, more than 100 µM; in the assay on UO-31 renal it was 26.9 µM.

For `O=C(/C=C/c1ccco1)c1ccc(Nc2nc(Nc3ccc(F)cc3)nc(Nc3ccc(Cl)cc3)n2)cc1`, the GI50 in the assay with 786-0 renal is more than 34.3 µM; with CCRF-CEM leukemia, more than 37.8 µM; in the assay on EKVX NSCLC, more than 32.1 µM; in the assay on KM12 colon, 16.7 µM; in the assay on LOX IMVI melanoma it was 16.1 µM; in the assay on OVCAR-4 ovarian it was 27.1 µM. The results for the GI50 in the assay with OVCAR-8 ovarian, in the assay with SK-MEL-28 melanoma and with UO-31 renal were 18.3 µM, more than 40.2 µM and more than 60.8 µM, respectively. The TGI in the assay with 786-0 renal is more than 49.4 µM; in the assay with CCRF-CEM leukemia, more than 94.4 µM; in the assay on EKVX NSCLC it was more than 60.2 µM; with KM12 colon it was 43.4 µM; in the assay with LOX IMVI melanoma it was 39.3 µM; with OVCAR-4 ovarian it was more than 88.3 µM. Besides, the TGI in the assay with OVCAR-8 ovarian was 57.3 µM; with SK-MEL-28 melanoma, more than 61.8 µM; with UO-31 renal it was more than 100 µM.

`Cc1ccc(NC(=O)c2[nH]c(=S)nc(N)c2-c2ccccc2C)cc1C`: the TGI with 786-0 renal, with CCRF-CEM leukemia, in the assay with EKVX NSCLC, in the assay on KM12 colon, with LOX IMVI melanoma and with OVCAR-8 ovarian was more than 100 µM throughout. Further, the TGI in the assay with SK-MEL-28 melanoma and in the assay with UO-31 renal was more than 100 µM in each case.

Turning to `O=C1NC(=O)C(C(=O)C(=O)Nc2ccc(Br)cc2)C(=O)N1`, the TGI in the assay on 786-0 renal, in the assay with CCRF-CEM leukemia, in the assay on EKVX NSCLC, in the assay with LOX IMVI melanoma, with OVCAR-4 ovarian and in the assay on OVCAR-8 ovarian was more than 100 µM each time. Moreover, the TGI with SF-295 CNS, with SK-MEL-28 melanoma and with UO-31 renal was more than 100 µM in each case.

For `O=C(CCN1CCN(c2cccc(Cl)c2)CC1)N1CCc2c([nH]c3ccccc23)C1c1cccnc1` (stereo unspecified), the GI50 in the assay with 786-0 renal is 5.96 µM; in the assay on CCRF-CEM leukemia, 6.62 µM; with KM12 colon, 5.04 µM; in the assay on LOX IMVI melanoma it was 6.5 µM; in the assay with OVCAR-4 ovarian, 4.23 µM; in the assay with UO-31 renal, 4.7 µM. Moreover, the TGI is 18.7 µM in the assay on 786-0 renal; more than 100 µM with CCRF-CEM leukemia; 26.3 µM in the assay on EKVX NSCLC; 15.9 µM in the assay on KM12 colon; 20.5 µM in the assay on LOX IMVI melanoma; 18.4 µM with OVCAR-4 ovarian. Besides, the TGI in the assay on OVCAR-8 ovarian came out at 21.7 µM; in the assay with SK-MEL-28 melanoma, 26.9 µM; in the assay with UO-31 renal, 16.2 µM.

The record behind these values is PubChem BioAssay (NCI).
